Laboratory results: ChEMBL document CHEMBL1201862, “PubChem BioAssay data set” (2004)
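Exposure lasted 48 hours, with cells grown in 96-well plates and compounds tested at five concentrations. GI50 = concentration required for 50% inhibition of growth.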 The source made the active and inactive calls. Rule as the data show it: active = GI50 up to about 1.1 µM and inactive = higher.

Tests used:
Assay in all cases: NCI anticancer screen, dose series, 48 h
SNB-19 = system: SNB-19
Malme-3M = system: Malme-3M
TK-10 = system: TK-10
CCRF-CEM = system: CCRF-CEM
DLD-1 = system: DLD-1
UACC-257 = system: UACC-257
SK-MEL-2 = system: SK-MEL-2
NCI-H522 = system: NCI-H522
SN12C = system: SN12C
786-0 = system: 786-0
MOLT-4 = system: MOLT-4
HOP-92 = system: HOP-92
LOX IMVI = system: LOX IMVI
UACC-62 = system: UACC-62
HCT-116 = system: HCT-116
SF-295 = system: SF-295
KM-20L2 = system: KM-20L2
DMS-273 = system: DMS-273
XF498 = system: XF498
SNB-75 = system: SNB-75
U-251 = system: U-251
COLO 205 = system: COLO 205
SK-OV-3 = system: SK-OV-3
HCC 2998 = system: HCC 2998
K562 = system: K562
CAKI-1 = system: CAKI-1
SF-539 = system: SF-539
NCI-H23 = system: NCI-H23
RXF 393 = system: RXF 393
SR = system: SR
M19-MEL = system: M19-MEL
HOP-18 = system: HOP-18
A498 = system: A498
HCT-15 = system: HCT-15
RXF 631 = system: RXF 631
UO-31 = system: UO-31
SK-MEL-5 = system: SK-MEL-5
IGROV-1 = system: IGROV-1
NCI-H226 = system: NCI-H226
A549 = system: A549
SK-MEL-28 = system: SK-MEL-28
DMS-114 = system: DMS-114
ACHN = system: ACHN
OVCAR-8 = system: OVCAR-8
RPMI-8226 = system: RPMI-8226
SF-268 = system: SF-268
M14 = system: M14
OVCAR-5 = system: OVCAR-5
HT-29 = system: HT-29
NCI-H460 = system: NCI-H460
LXFL 529 = system: LXFL 529
HL-60 = system: HL-60
EKVX = system: EKVX
OVCAR-3 = system: OVCAR-3
HOP-62 = system: HOP-62
KM12 = system: KM12

For COC(=O)/C=C(/C(=O)OC)C1(C)c2cc(C(=O)OC)c(C(=O)OC)c(N)c2C(=N)N1c1ccccc1 (stereo unspecified), the GI50 (SNB-19) was 49 µM (inactive), the GI50 (Malme-3M) was 17.4 µM (inactive) and the GI50 (TK-10) was 41.4 µM (inactive). For the same compound, the GI50 (CCRF-CEM) was 15.5 µM (inactive), the GI50 (DLD-1) was 13.8 µM (inactive) and the GI50 (UACC-257) was > 10 µM (inactive). For the same compound, the GI50 (SK-MEL-2) was 36.7 µM (inactive), the GI50 (NCI-H522) was 14.2 µM (inactive) and the GI50 (SN12C) was 19.6 µM (inactive). For the same compound, the GI50 (786-0) was 28.6 µM (inactive), the GI50 (MOLT-4) was 17.8 µM (inactive) and the GI50 (HOP-92) was 10.4 µM (inactive). For the same compound, the GI50 (LOX IMVI) was 18.2 µM (inactive), the GI50 (UACC-62) was 24.6 µM (inactive) and the GI50 (HCT-116) was 15.8 µM (inactive). The GI50 (SF-295) was 17.9 µM (inactive), the GI50 (KM-20L2) was 17 µM (inactive) and the GI50 (DMS-273) was 52.8 µM (inactive). The GI50 (XF498) was 14.7 µM (inactive), the GI50 (SNB-75) was 29.4 µM (inactive) and the GI50 (U-251) was 20.1 µM (inactive). For the same compound, the GI50 (COLO 205) was 15.9 µM (inactive), the GI50 (SK-OV-3) was 34 µM (inactive) and the GI50 (HCC 2998) was 16.7 µM (inactive). For the same compound, the GI50 (K562) was 18.7 µM (inactive), the GI50 (CAKI-1) was 21.4 µM (inactive) and the GI50 (SF-539) was 22.2 µM (inactive). For the same compound, the GI50 (NCI-H23) was 22.1 µM (inactive), the GI50 (RXF 393) was 17.1 µM (inactive) and the GI50 (SR) was 22.8 µM (inactive). The GI50 (M19-MEL) was 13.9 µM (inactive), the GI50 (HOP-18) was 20.6 µM (inactive) and the GI50 (A498) was 31.1 µM (inactive). The GI50 (HCT-15) was 31.8 µM, the GI50 (RXF 631) was 29.1 µM (inactive) and the GI50 (UO-31) was 22.6 µM (inactive). For the same compound, the GI50 (SK-MEL-5) was > 10 µM (inactive), the GI50 (IGROV-1) was 27.5 µM (inactive) and the GI50 (NCI-H226) was 36.2 µM (inactive). The GI50 (A549) was 42 µM (inactive), the GI50 (SK-MEL-28) was 18.1 µM (inactive) and the GI50 (DMS-114) was 15.1 µM (inactive). For the same compound, the GI50 (ACHN) was 18 µM (inactive), the GI50 (OVCAR-8) was 17.4 µM (inactive) and the GI50 (RPMI-8226) was 21.5 µM (inactive). The GI50 (SF-268) was 19.3 µM (inactive), the GI50 (M14) was 17.5 µM (inactive) and the GI50 (OVCAR-5) was 41.4 µM (inactive). For the same compound, the GI50 (HT-29) was 16.7 µM (inactive), the GI50 (NCI-H460) was 39.5 µM (inactive) and the GI50 (LXFL 529) was 19 µM (inactive). For the same compound, the GI50 (HL-60) was 14.1 µM (inactive), the GI50 (EKVX) was 27.1 µM (inactive) and the GI50 (OVCAR-3) was 17.9 µM (inactive). The GI50 (HOP-62) was 86.7 µM (inactive) and the GI50 (KM12) was 17.2 µM (inactive).
